What was measured:
PI3K-gamma = PI3K-gamma (Homo sapiens, UniProt P48736); assay: PI3K-gamma fluorescence polarization assay; type: biochemical; conditions: PI3Kγ Avg. IC50
Experimental: PI3K-Alpha, PI3K-Beta, PI3K-Gamma, and PI3K-delta Fluorescence Polarization Assay Protocols
PI3-Kinase reactions were performed in 5 mM HEPES, pH 7, 2.5 mM MgCl2, and 25 μM ATP, with diC8-PI(4,5)P2 (Echelon, Salt Lake City Utah) as substrate. Nunc 384-well black polypropylene fluorescent plates were used for PI3K assays. Reactions were quenched by the addition of EDTA to a final concentration of 10 mM. Final reaction volumes were 10 μl. For evaluation of PI3K inhibitors, 5 ng of enzyme (PI3K-alpha, beta, gamma, or delta) and 2.5 μM of substrate was used per […] reaction volume, and inhibitor concentrations ranged from 100 μM to 20 μM; the final level of DMSO in reactions never exceeded 2%. Reactions were allowed to proceed for one hour at 25° C. After 1 hour, GST-tagged GRP1 (general receptor for phosphoinositides) PH domain fusion protein was added to a final concentration of 100 nM, and BODIPY-TMRI(1,3,4,5)P4 (Echelon) was also added to a final concentration of 5 nM. Final sample volumes were 25 μl with a final DMSO concentration of 0.8%. Assay Plates were read on Perkin-Elmer Envision plate readers with appropriate filters for Tamra [BODIPY-TMRI(1,3,4,5)P4]. Data obtained were used to calculate enzymatic activity and enzyme inhibition by inhibitor compounds.

PI3K-alpha = PI3K-alpha (Homo sapiens, UniProt P42336); assay: PI3K-alpha fluorescence polarization assay; type: biochemical; conditions: read-out: PI3Kα Avg. IC50
PI3K-alpha, sequence (P42336 whole entry, species assumed): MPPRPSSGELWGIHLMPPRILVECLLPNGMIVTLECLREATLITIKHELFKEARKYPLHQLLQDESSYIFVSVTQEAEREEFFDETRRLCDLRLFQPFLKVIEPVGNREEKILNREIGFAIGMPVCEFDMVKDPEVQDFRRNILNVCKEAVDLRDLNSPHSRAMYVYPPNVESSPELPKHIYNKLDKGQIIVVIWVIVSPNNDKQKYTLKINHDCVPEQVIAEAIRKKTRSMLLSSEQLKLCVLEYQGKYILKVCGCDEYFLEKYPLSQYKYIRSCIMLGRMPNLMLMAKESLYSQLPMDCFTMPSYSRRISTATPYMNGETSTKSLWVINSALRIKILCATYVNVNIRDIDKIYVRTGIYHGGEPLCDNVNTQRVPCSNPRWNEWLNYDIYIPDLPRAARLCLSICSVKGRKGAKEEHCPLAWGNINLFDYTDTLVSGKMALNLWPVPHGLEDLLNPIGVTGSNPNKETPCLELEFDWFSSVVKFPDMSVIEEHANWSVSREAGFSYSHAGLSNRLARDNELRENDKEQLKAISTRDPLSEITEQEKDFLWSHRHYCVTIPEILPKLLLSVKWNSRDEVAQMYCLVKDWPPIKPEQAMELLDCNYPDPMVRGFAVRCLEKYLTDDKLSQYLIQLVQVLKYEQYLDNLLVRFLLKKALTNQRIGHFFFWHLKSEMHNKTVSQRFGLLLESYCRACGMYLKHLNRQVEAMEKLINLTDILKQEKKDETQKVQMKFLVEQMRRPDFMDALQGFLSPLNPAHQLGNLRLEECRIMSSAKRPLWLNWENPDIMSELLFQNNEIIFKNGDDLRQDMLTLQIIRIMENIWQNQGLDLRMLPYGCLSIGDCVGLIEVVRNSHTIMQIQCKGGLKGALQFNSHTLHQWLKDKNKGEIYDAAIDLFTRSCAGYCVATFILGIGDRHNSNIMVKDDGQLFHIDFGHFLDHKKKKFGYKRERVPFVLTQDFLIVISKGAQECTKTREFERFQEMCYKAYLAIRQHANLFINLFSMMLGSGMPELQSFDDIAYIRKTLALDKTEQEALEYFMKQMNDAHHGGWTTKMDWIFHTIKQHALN
PI3K-alpha, sequence (P27986 whole entry partner, species assumed): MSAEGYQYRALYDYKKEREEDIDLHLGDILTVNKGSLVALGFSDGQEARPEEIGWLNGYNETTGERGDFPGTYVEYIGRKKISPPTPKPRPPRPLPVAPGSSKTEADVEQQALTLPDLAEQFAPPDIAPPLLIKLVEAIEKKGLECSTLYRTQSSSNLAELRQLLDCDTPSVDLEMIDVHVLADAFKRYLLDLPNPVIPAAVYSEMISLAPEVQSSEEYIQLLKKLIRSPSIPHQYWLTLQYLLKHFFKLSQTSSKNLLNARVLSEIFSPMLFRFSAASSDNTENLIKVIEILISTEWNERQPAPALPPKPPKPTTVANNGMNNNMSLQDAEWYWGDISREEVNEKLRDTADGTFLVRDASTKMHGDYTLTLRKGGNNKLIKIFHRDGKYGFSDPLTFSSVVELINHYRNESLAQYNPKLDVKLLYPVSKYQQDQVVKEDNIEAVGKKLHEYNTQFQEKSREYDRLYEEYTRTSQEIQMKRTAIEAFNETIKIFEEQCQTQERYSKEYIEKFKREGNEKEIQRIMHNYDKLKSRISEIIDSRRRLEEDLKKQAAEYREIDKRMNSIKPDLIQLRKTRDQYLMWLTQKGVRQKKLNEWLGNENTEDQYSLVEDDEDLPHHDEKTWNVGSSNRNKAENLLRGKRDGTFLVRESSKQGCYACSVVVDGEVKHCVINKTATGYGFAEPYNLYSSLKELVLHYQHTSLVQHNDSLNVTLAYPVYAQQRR

PI3K-gamma, sequence (P48736 whole entry, species assumed): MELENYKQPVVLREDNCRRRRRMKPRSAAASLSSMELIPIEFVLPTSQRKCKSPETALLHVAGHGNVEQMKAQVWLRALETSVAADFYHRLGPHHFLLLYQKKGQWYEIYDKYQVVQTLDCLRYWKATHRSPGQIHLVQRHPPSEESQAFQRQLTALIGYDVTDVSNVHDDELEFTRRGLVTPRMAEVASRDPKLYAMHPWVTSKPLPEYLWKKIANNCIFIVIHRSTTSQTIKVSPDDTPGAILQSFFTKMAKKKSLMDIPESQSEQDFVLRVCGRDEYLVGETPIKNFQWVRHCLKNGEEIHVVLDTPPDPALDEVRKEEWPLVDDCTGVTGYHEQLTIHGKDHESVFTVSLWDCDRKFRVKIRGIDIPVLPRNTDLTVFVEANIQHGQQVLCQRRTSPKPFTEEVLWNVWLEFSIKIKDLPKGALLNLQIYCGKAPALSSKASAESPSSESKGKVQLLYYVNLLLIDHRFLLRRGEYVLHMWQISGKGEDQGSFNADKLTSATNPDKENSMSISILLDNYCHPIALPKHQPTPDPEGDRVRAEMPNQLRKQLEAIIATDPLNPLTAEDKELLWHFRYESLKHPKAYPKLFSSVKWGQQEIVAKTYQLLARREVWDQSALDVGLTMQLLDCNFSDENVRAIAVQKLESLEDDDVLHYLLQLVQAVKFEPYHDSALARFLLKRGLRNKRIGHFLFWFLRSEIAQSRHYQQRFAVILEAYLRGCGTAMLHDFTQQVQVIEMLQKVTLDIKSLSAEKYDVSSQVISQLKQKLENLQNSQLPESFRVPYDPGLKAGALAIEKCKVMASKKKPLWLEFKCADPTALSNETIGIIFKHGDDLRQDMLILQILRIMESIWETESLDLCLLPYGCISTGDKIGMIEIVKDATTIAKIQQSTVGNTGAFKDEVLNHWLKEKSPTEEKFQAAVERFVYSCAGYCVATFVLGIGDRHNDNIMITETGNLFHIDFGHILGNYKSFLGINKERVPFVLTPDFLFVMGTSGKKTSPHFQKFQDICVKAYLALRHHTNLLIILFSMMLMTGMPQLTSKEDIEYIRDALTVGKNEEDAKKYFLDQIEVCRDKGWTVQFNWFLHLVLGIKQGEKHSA

| Structure (SMILES) | IC50 (PI3K-gamma) [nM] | IC50 (PI3K-alpha) [nM] |
| --- | --- | --- |
| CNC(=O)Nc1ccc2c(c1)C(=O)/C(=C/c1c[nH]c3c(/C=C/CN4CCOCC4)cc(OC)cc13)O2 [Compound 567, 1-[(2Z)-2-({5-methoxy-7-[(1E)-3-morpholin-4-ylprop-1-en-1-yl]-1H-indol-3-yl}methylene)-3-oxo-2,3-dihydro-1-benzofuran-5-yl]-3-methylurea] | 1550 | 164 |
| COc1ccc2[nH]cc(/C=C3\Oc4ccc(NC(=O)Nc5cccnc5)cc4C3=O)c2c1 [Compound 484, 1-{(2Z)-2-[(5-methoxy-1H-indol-3-yl)methylene]-3-oxo-2,3-dihydro-1-benzofuran-5-yl}-3-pyridin-3-ylurea] | > 10000 | 1660 |
| CCNC(=O)Nc1ccc2c(c1)C(=O)/C(=C/c1cn(C)c3cccc(-c4ccccc4)c13)O2 [Compound 543, 1-ethyl-3-{(2Z)-2-[(1-methyl-4-phenyl-1H-indol-3-yl)methylidene]-3-oxo-2,3-dihydro-1-benzofuran-5-yl}urea] | > 10000 | > 10000 |
| CCCc1noc(-c2[nH]c3ccc(OC)cc3c2/C=C2\Oc3ccc(NC(=O)NC)cc3C2=O)n1 [Compound 593, 1-[(2Z)-2-{[5-methoxy-2-(3-propyl-1,2,4-oxadiazol-5-yl)-1H-indol-3-yl]methylene}-3-oxo-2,3-dihydro-1-benzofuran-5-yl]-3-methylurea] | 776 | 12.5 |
| CCc1cc(OC)cc2c(C=C3Oc4cc(O)cc(O)c4C3=O)cn(CCCC#N)c12 [Compound 471, 4-{3-[(4,6-dihydroxy-3-oxo-1-benzofuran-2(3H)-ylidene)methyl]-7-ethyl-5-methoxy-1H-indol-1-yl}butanenitrile] | 139 | 62.5 |
| Cn1cc(/C=C2\Oc3cc(O)cc(O)c3C2=O)c2c(-c3ccccc3)cccc21 [Compound 531, (2Z)-4,6-dihydroxy-2-[(1-methyl-4-phenyl-1H-indol-3-yl)methylene]-1-benzofuran-3(2H)-one] | 2530 | 340 |
| CNC(=O)Nc1ccc2c(c1)C(=O)/C(=C/c1c(C)n(CCCN3CCN(CCO)CC3)c3ccc(OC)cc13)O2 [Compound 599, 1-{(2Z)-2-[(1-{3-[4-(2-hydroxyethyl)piperazin-1-yl]propyl}-5-methoxy-2-methyl-1H-indol-3-yl)methylidene]-3-oxo-2,3-dihydro-1-benzofuran-5-yl}-3-methylurea] | 950 | 10 |
| CNC(=O)Nc1ccc2c(c1)C(=O)/C(=C/c1c[nH]c3c(CN4CCN(C)CC4)cc(OC)cc13)O2 [Compound 571, 1-[(2Z)-2-({5-methoxy-7-[(4-methylpiperazin-1-yl)methyl]-1H-indol-3-yl}methylene)-3-oxo-2,3-dihydro-1-benzofuran-5-yl]-3-methylurea] | 6440 | 612 |
| CNC(=O)Nc1ccc2c(c1)C(=O)/C(=C/c1c(C)n(CCCN3CCC(O)CC3)c3ccc(OC)cc13)O2 [Compound 587, 1-[(2Z)-2-({1-[3-(4-hydroxypiperidin-1-yl)propyl]-5-methoxy-2-methyl-1H-indol-3-yl}methylene)-3-oxo-2,3-dihydro-1-benzofuran-5-yl]-3-methylurea] | 982 | 4 |
| COc1cc(-c2cccnc2)c2c(c1)c(/C=C1\Oc3cc(O)ccc3C1=O)cn2CCCC#N [Compound 502, 4-{3-[(Z)-(6-hydroxy-3-oxo-1-benzofuran-2(3H)-ylidene)methyl]-5-methoxy-7-pyridin-3-yl-1H-indol-1-yl}butanenitrile] | 4160 | 592 |
| CNC(=O)Nc1ccc2c(c1)C(=O)/C(=C/c1c(C3CC3)n(CCN3CCN(C)CC3)c3ccc(OC)cc13)O2 [Compound 559, 1-[(2Z)-2-({2-cyclopropyl-5-methoxy-1-[2-(4-methylpiperazin-1-yl)ethyl]-1Hindol-3-yl}methylene)-3-oxo-2,3-dihydro-1-benzofuran-5-yl]-3-methylurea] | 537 | 2.25 |
| COc1ccc2c(c1)c(C=C1Oc3cccc(O)c3C1=O)c(C)n2CCCCCl [Example 123, 2-{[1-(4-chlorobutyl)-5-methoxy-2-methyl-1H-indol-3-yl]methylene}-4-hydroxy-1-benzofuran-3(2H)-one] | > 10000 | 1220 |
| CNC(=O)Nc1ccc2c(c1)C(=O)/C(=C/c1cn(CCCN(C)C)c3ccc(OC)cc13)O2 [Compound 520, 1-[(2Z)-2-({1-[3-(dimethylamino)propyl]-5-methoxy-1H-indol-3-yl}methylene)-3-oxo-2,3-dihydro-1-benzofuran-5-yl]-3-methylurea] | 4020 | 72.5 |
| COc1ccc2[nH]cc(C=C3Oc4c(OC)cccc4C3=O)c2c1 [Compound 483, 7-methoxy-2-[(5-methoxy-1H-indol-3-yl)methylene]-1-benzofuran-3(2H)-one] | 5220 | 9860 |
| CNC(=O)Nc1ccc2c(c1)C(=O)/C(=C/c1c(C(=O)NCCN(C)C)[nH]c3ccc(OC)cc13)O2 [Compound 605, N-[2-(dimethylamino)ethyl]-5-methoxy-3-[(Z)-{5-[(methylcarbamoyl)amino]-3-oxo-1-benzofuran-2(3H)-ylidene}methyl]-1H-indole-2-carboxamide] | 315 | 19 |
| COC(=O)NC(=O)Nc1ccc2c(c1)C(=O)/C(=C/c1c[nH]c3ccc(OC)cc13)O2 [Compound 490, methyl ({(2Z)-2-[(5-methoxy-1H-indol-3-yl)methylene]-3-oxo-2,3-dihydro-1-benzofuran-5-yl}carbamoyl)carbamate] | > 10000 | 674 |
| Cn1cc(/C=C2\Oc3cc(O)cc(O)c3C2=O)c2c(N3CCOCC3)cccc21 [Compound 496, (2Z)-4,6-dihydroxy-2-[(1-methyl-4-morpholin-4-yl-1H-indol-3-yl)methylene]-1-benzofuran-3(2H)-one] | 4770 | 1040 |
| CCNC(=O)Nc1ccc2c(c1)C(=O)/C(=C/c1cn(CCCN(C)C)c3ccc(OC)cc13)O2 [Compound 547, 1-[(2Z)-2-({1-[3-(dimethylamino)propyl]-5-methoxy-1H-indol-3-yl}methylene)-3-oxo-2,3-dihydro-1-benzofuran-5-yl]-3-ethylurea] | 2120 | 63 |
| CNC(=O)Nc1ccc2c(c1)C(=O)/C(=C/c1cn(CCCN3CCCCC3)c3ccc(OC)cc13)O2 [Compound 578, 1-[(2Z)-2-{[5-methoxy-1-(3-piperidin-1-ylpropyl)-1H-indol-3-yl]methylene}-3-oxo-2,3-dihydro-1-benzofuran-5-yl]-3-methylurea] | 2180 | 38 |
| N#CCCCn1cc(C=C2Oc3cc(O)cc(O)c3C2=O)c2cc(F)ccc21 [Example 231, 4-{3-[(4,6-dihydroxy-3-oxo-1-benzofuran-2(3H)-ylidene)methyl]-5-fluoro-1H-indol-1-yl}butanenitrile] | > 10000 | 3500 |
| COc1ccc2c(c1)c(/C=C1\Oc3ccc(NC(=O)NCCN(C)C)cc3C1=O)cn2CCN1CCN(C)CC1 [Compound 574, 1-[2-(dimethylamino)ethyl]-3-[(2Z)-2-({5-methoxy-1-[2-(4-methylpiperazin-1-yl)ethyl]-1H-indol-3-yl}methylene)-3-oxo-2,3-dihydro-1-benzofuran-5-yl]urea] | 2990 | 97.5 |
| COc1ccc2c(c1)c(/C=C1\Oc3ccc(NC(N)=O)cc3C1=O)cn2CCCN(C)C [Compound 537, 1-[(2Z)-2-({1-[3-(dimethylamino)propyl]-5-methoxy-1H-indol-3-yl}methylene)-3-oxo-2,3-dihydro-1-benzofuran-5-yl]urea] | > 10000 | 421 |
| Cn1cc(/C=C2\Oc3ccc(O)cc3C2=O)c2c(-c3ccccc3)cccc21 [Compound 530, (2Z)-5-hydroxy-2-[(1-methyl-4-phenyl-1H-indol-3-yl)methylene]-1-benzofuran-3(2H)-one] | > 10000 | > 10000 |
| COc1ccc2c(c1)c(/C=C1\Oc3ccc(NC(=O)NCCCN(C)C)cc3C1=O)cn2CCN1CCN(C)CC1 [Compound 569, 1-[3-(dimethylamino)propyl]-3-[(2Z)-2-({5-methoxy-1-[2-(4-methylpiperazin-1-yl)ethyl]-1H-indol-3-yl}methylene)-3-oxo-2,3-dihydro-1-benzofuran-5-yl]urea] | 6500 | 242 |
| COc1ccc2c(c1)c(/C=C1\Oc3ccc(NC(=O)NCCCO)cc3C1=O)cn2CCCN(C)C [Compound 568, 1-[(2Z)-2-({1-[3-(dimethylamino)propyl]-5-methoxy-1H-indol-3-yl}methylene)-3-oxo-2,3-dihydro-1-benzofuran-5-yl]-3-(3-hydroxypropyl)urea] | 3390 | 477 |
| Cn1cc(/C=C2\Oc3ccc(NC(=O)OC(C)(C)C)cc3C2=O)c2c(-c3ccccc3)cccc21 [Compound 532, tert-butyl {(2Z)-2-[(1-methyl-4-phenyl-1H-indol-3-yl)methylene]-3-oxo-2,3-dihydro-1-benzofuran-5-yl}carbamate] | > 10000 | > 10000 |
